# Tests used:
# [1] = system: MM.1S cells; assay: Combination XTT assay, Chou-Talalay, MM.1S; format: cell-based, human; parameters: key: CI <1 synergism, =1 additive, >1 antagonism (Chou-Talalay); conditions: 48 h
# Experimental: (§1) Combinations of novel and/or conventional anti-MM agents may achieve higher clinical response rates than a single agent(s).
# (§2) CI value <1, =1, >1 indicates synergism, additive effect, and antagonism, respectively, (n=3 independent experiments). The CI values were calculated by the Chou-Talalay method based on the median-effect equation and the classic isobologram equation [22], using compusyn computer software.
# [2] = system: RPMIS cells; assay: Combination XTT assay, Chou-Talalay, RPMIS; format: cell-based, human; parameters: key: CI <1 synergism, =1 additive, >1 antagonism (Chou-Talalay); conditions: 48 h
# Experimental: as §1, §2
# [3] = system: human multiple myeloma (MM) cell lines; assay: Cell viability XTT assay, MM cell lines; format: cell-based; conditions: each MM cell line
# Experimental: The following panel of human multiple myeloma (MM) cell lines was used: RPMI-S (ATCC® CCL-155), RPMI-LR5, RPMI-MR20, MM.1S (ATCC® CRL-2974). OPM1, OPM-2, U266 ATCC® TIB-196 and CAG. The human immortalized bone marrow stromal cell (BMSC) line HS-5 was obtained from ATCC® CRL-11882. MM cell lines were grown in RPMI and HS-5 in DMEM, supplemented with 10% fetal calf serum, 2 mM L-glutamine, 100 units/mL penicillin and 100 μg/mL streptomycin (Biological Industries, Beit Haemek, Israel), and incubated in a humidified atmosphere of 5% CO2 and 95% air at 37° C.
# MM cell lines were plated at a density of 2×10^4 cells per well in 96-wells and treated with different concentrations of STK405759. For patient samples, bone marrow aspirates from MM patients were collected, mononuclear cells were separated by Ficoll density gradient centrifugation and myeloma cells selected using CD138 microbeads (Miltenyi Biotec). Purified CD138^+ cells from patients were plated at a density of 2×10^4 cells per well and treated for 48 h with different concentrations of STK405759. Peripheral blood samples were processed by Ficoll density gradient centrifugation to isolate peripheral blood mononuclear cells (PBMCs). […] Cell viability was measured using XTT cell proliferation Kit (Biological Industries) according to manufacture instructions. […]
# [4] = system: RPMIS MM cells; assay: Xenograft murine model; format: in vivo, SCID mice; conditions: 0.5 mg/kg i.p.; not reached after follow-up of 60 days; control 28 days
# Experimental: RPMIS cells (7×10^6 mouse in 100 μl of PBS) were injected subcutaneously in SCID mice. Mice (n=10 per group) received STK405759 (0.5 mg/kg in 0.1 ml PBS) or control vehicle (0.1 ml PBS), by intraperitoneal (i.p.) administration once a day for 5 days. FIG. 6A—Tumor diameters were measured every 2-3 days with caliper, and tumor volumes were calculated using the formula of the volume of an ellipse: ½ (length×width^2). […] FIG. 6B—Kaplan-Meier analysis of overall survival confirmed that STK405759 increased survival compared with control mice. […] FIG. 6D—Induction of apoptosis and cell death in tumors excised from vehicle or STK405759 (0.5 mg/kg) treated animals are shown by TUNEL assay. Photomicrographs show apoptotic cells (brown) using light microscopy (×20 and ×40 magnification).
# Male SCID mice (6-8 week old) were maintained in accordance with Institutional Animal Care Use Committee guidelines. […]
# Mice were monitored every 2-3 d for changes in body weight and tumor burden. Tumor volumes were measured by a caliper every alternate day and calculated using the following formula: length×width^2×0.5. […] Following sacrifice, tumors were immediately collected and evaluated for induction of apoptosis and cell death by TdT-mediated dUTP nick end labeling (TUNEL) assay.
# [5] = system: HS-5 bone marrow stromal cells; assay: CFSE/PI FACS viability in co-culture, stromal cells; format: cell-based, human; conditions: 48 h
# Experimental: FIGS. 2A-D are graphs showing that STK405759 overcomes the growth stimulatory effect of BMSCs. IL-6 or IGF-1 on MM cell growth. FIG. 2A-B—RPMIS cells were stained with CFSE, co-cultured with HS-5 and exposed to STK405759 (70 nM) for 48 h. The cells were contrastained with PI to distinguish live from nonviable cells using FACS analysis. The values of the fraction of nonviable (CFSE^−PI^+) HS-5 cells within the entire population of HS-5 cells (CFSE^−) cultured alone or with RPMIS cells, and the fraction of (CFSE^+PI^+) RPMIS cells within the entire population of RPMIS cells (CFSE) cultured alone or with HS-5 cells are presented as a function of the STK405759 concentrations. FIGS. 2C-D—RPMIS cells were cultured for 48 hours at the indicated concentrations of STK405759 in the presence or absence of IL-6 (5 or 10 ng/ml) or IGF-1 (10 or 30 ng/ml). Data presented are from three independent experiments and presented as means±SE.
# Since BMSC trigger and maintain MM cell homing, proliferation, and drug resistance, the present inventors have assessed whether MM cell sensitivity to STK405759 is attenuated by co-culture with bone marrow stromal cells. In order to quantify viability of MM cells cultured alone or co-cultured with HS-5 bone marrow stromal cells. MM cells were stained with CFSE. […]
# [6] = system: peripheral blood mononuclear cells (PBMCs); assay: Cell viability XTT assay, PBMCs; format: cell-based, human; conditions: PBMC from the same patients and from healthy donors, 48 h
# Experimental: (§3) MM cell lines were plated at a density of 2×10^4 cells per well in 96-wells and treated with different concentrations of STK405759. For patient samples, bone marrow aspirates from MM patients were collected, mononuclear cells were separated by Ficoll density gradient centrifugation and myeloma cells selected using CD138 microbeads (Miltenyi Biotec). Purified CD138^+ cells from patients were plated at a density of 2×10^4 cells per well and treated for 48 h with different concentrations of STK405759. Peripheral blood samples were processed by Ficoll density gradient centrifugation to isolate peripheral blood mononuclear cells (PBMCs). PBMCs were plated at 2×10^4 cells per well and exposed to different concentrations of STK405759 for 48 h. Cell viability was measured using XTT cell proliferation Kit (Biological Industries) according to manufacture instructions.
# [7] = Xenograft murine model, body weight and toxicity; format: in vivo; conditions: 0.5 mg/kg i.p., during treatment
# Experimental: Mice were monitored every 2-3 d for changes in body weight and tumor burden. Tumor volumes were measured by a caliper every alternate day and calculated using the following formula: length×width^2×0.5. Mice were sacrificed in accordance with institutional guidelines when tumors reached 1.5 cm^3 or if the mice appeared moribund, to prevent unnecessary morbidity to the mice. Following sacrifice, tumors were immediately collected and evaluated for induction of apoptosis and cell death by TdT-mediated dUTP nick end labeling (TUNEL) assay.
# [8] = system: affinity-purified CD138+ cells from bone marrow samples of MM patients; assay: Cell viability XTT assay, primary patient MM cells; format: cell-based, human; conditions: 2 MM patients, 48 h
# Experimental: as §3
structure (smiles),measurement,setting,value
"CC(C)C[C@H](NC(=O)[C@H](Cc1ccccc1)NC(=O)c1cnccn1)B(O)O [BTZ, bortezomib]",Combination Index,[1]; STK405759 45 nM + BTZ 1 nM,0.62 ± 0.14
same,Combination Index,[1]; STK405759 45 nM + BTZ 5 nM,0.58 ± 0.02
same,Combination Index,[2]; STK405759 45 nM + BTZ 1 nM,0.88 ± 0.02
same,Combination Index,[2]; STK405759 45 nM + BTZ 5 nM,0.78 ± 0.08
"C[C@@H]1C[C@H]2[C@@H]3CCC4=CC(=O)C=C[C@]4(C)[C@@]3(F)[C@@H](O)C[C@]2(C)[C@@]1(O)C(=O)CO [DEX, dexamethasone]",Combination Index,[1]; STK405759 45 nM + DEX 1 nM,0.76 ± 0.15
same,Combination Index,[1]; STK405759 45 nM + DEX 5 nM,0.63 ± 0.09
same,Combination Index,[2]; STK405759 45 nM + DEX 1 nM,0.76 ± 0.06
same,Combination Index,[2]; STK405759 45 nM + DEX 5 nM,0.84 ± 0.03
"COc1cccc2c1C(=O)c1c(O)c3c(c(O)c1C2=O)C[C@@](O)(C(=O)CO)C[C@@H]3O[C@H]1C[C@H](N)[C@H](O)[C@H](C)O1 [DOXO, doxorubicin]",Combination Index,[1]; STK405759 45 nM + DOXO 10 nM,1.30 ± 0.06
same,Combination Index,[1]; STK405759 45 nM + DOXO 30 nM,1.54 ± 0.08
same,Combination Index,[2]; STK405759 45 nM + DOXO 10 nM,1.44 ± 0.01
same,Combination Index,[2]; STK405759 45 nM + DOXO 30 nM,1.63 ± 0.10
"Nc1cccc2c1CN(C1CCC(=O)NC1=O)C2=O (stereo not shown) [LEN, lenalidomide]",Combination Index,[1]; STK405759 45 nM + LEN 5 μM,0.62 ± 0.09
same,Combination Index,[1]; STK405759 45 nM + LEN 25 μM,0.58 ± 0.09
same,Combination Index,[2]; STK405759 45 nM + LEN 5 μM,0.77 ± 0.09
same,Combination Index,[2]; STK405759 45 nM + LEN 25 μM,0.74 ± 0.05
CCCCCOC(=O)c1[nH]c2c(c1C)C(=O)CC(c1ccco1)C2 (stereo not shown) [STK405759],IC50,[3],< 44 nM
same,median overall survival,[4],> 60 days
same,viability of HS-5 stromal cells,[5],unaffected
same,cytotoxic effect on PBMC,[6],non responsive to the cytotoxic effect
same,changes in weight or other signs of potential toxicity,[7],No significant changes
same,cytotoxic response of primary MM cells,[8],dose-dependent cytotoxic response
